9 compounds from PubChem BioAssay (NCI) can be followed below.

Test systems include NCI/ADR-RES ovarian; HS 578T breast; CCRF-CEM leukemia; NCI-H226 lung; SF-295 CNS; HT29 colon; NCI-H23 lung; HCT-15 colon; PC-3 prostate; MALME-3M melanoma.
What all share (experiment): DTP human tumour cell line panel, 48 h

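The compound was tested at five concentrations on cells cultured in 96-well plates, with a 48-hour exposure period. GI50 = concentration required for 50% inhibition of growth. TGI: concentration producing complete growth inhibition.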 A value given as a limit tells only on which side of the number the result lay.

Broadly, the TGI is the concentration at which net growth stops. Low readings indicate greater sensitivity of the cells, high ones lower sensitivity of the cells. For `Nc1ncc2ncn(C3CCC(CO)O3)c2n1` (stereo unspecified), the TGI in the assay with NCI/ADR-RES ovarian, in the assay on HS 578T breast, with CCRF-CEM leukemia, in the assay on NCI-H226 lung, with SF-295 CNS and in the assay on HT29 colon was above 100 µM each time. Besides, the total growth inhibition concentration (TGI) in the assay on NCI-H23 lung, with HCT-15 colon and with PC-3 prostate was above 100 µM each time.

One may read the GI50 as the concentration giving 50% growth inhibition. Regarding `CCOc1ccc2cc(-c3nn(CC4CCNCC4)c4ncnc(N)c34)ccc2c1`, the GI50 in the assay on NCI/ADR-RES ovarian is 15.6 µM; in the assay with HS 578T breast, 10.2 µM; in the assay with CCRF-CEM leukemia, 13.9 µM; in the assay on NCI-H226 lung it was 10 µM; in the assay on SF-295 CNS, 14.8 µM; in the assay with HT29 colon, 10.9 µM. For the same compound, the GI50 in the assay on NCI-H23 lung was 13.4 µM; in the assay on HCT-15 colon it was 13.5 µM; with PC-3 prostate it was 15.5 µM. Further, the total growth inhibition concentration (TGI) was found to be 29.8 µM with NCI/ADR-RES ovarian; 43.4 µM in the assay on HS 578T breast; 34.2 µM in the assay on CCRF-CEM leukemia; 33.4 µM in the assay on NCI-H226 lung; 29.5 µM with SF-295 CNS; 32 µM in the assay on HT29 colon. Further, the TGI in the assay on NCI-H23 lung stood at 31.9 µM; with HCT-15 colon, 32.1 µM; with PC-3 prostate, 41.9 µM.

Regarding `COc1ccc(C2=Nn3c(nnc3-n3nc(C)cc3C)SC2)cc1`, the GI50 was 0.0407 µM in the assay with MALME-3M melanoma; 0.0536 µM with NCI/ADR-RES ovarian; 0.038 µM in the assay with CCRF-CEM leukemia; 0.0401 µM with HT29 colon; 0.18 µM in the assay on NCI-H23 lung; 0.05 µM with HCT-15 colon. For the same compound, the 50% growth inhibitory concentration (GI50) with PC-3 prostate is 0.0453 µM. In addition, the TGI in the assay with MALME-3M melanoma is 70.5 µM; with NCI/ADR-RES ovarian, above 100 µM; in the assay with HS 578T breast, above 100 µM; with CCRF-CEM leukemia it was above 100 µM; in the assay with NCI-H226 lung, above 100 µM; with NCI-H23 lung it was above 100 µM. Moreover, the TGI in the assay on HCT-15 colon and with PC-3 prostate was above 100 µM each time.

Take `COc1cc2cc(Oc3cccc(NC(=O)Nc4cc(C(F)(F)F)cc(C(F)(F)F)c4)c3)c(C)nc2cc1OC`: the GI50 in the assay on MALME-3M melanoma is 1.1 µM; in the assay on HS 578T breast, 2.65 µM; in the assay with CCRF-CEM leukemia, 0.641 µM; in the assay on NCI-H226 lung it was 1.8 µM; in the assay on SF-295 CNS it was 0.481 µM; in the assay with HT29 colon, 1.52 µM. The GI50 with NCI-H23 lung was 0.639 µM; in the assay on HCT-15 colon it was 0.668 µM; with PC-3 prostate it was 0.423 µM. Moreover, the concentration for total growth inhibition (TGI) with MALME-3M melanoma was 3.46 µM; in the assay with HS 578T breast, 6.94 µM; in the assay on CCRF-CEM leukemia, 3.47 µM; with NCI-H226 lung, 3.91 µM; with SF-295 CNS it was 1.94 µM; in the assay with HT29 colon it was 3.46 µM. The TGI in the assay with NCI-H23 lung turned out to be 3.55 µM; in the assay with HCT-15 colon, 2.04 µM; with PC-3 prostate, 2.48 µM.

For `O=[N+]([O-])/C=C/c1ccc(Cl)cc1[N+](=O)[O-]`, the GI50 in the assay on MALME-3M melanoma is 4.15 µM; in the assay on NCI/ADR-RES ovarian, 3.18 µM; with HS 578T breast, 8.16 µM; with CCRF-CEM leukemia it was 1.12 µM; in the assay with NCI-H226 lung, 2.43 µM; in the assay on SF-295 CNS it was 6.72 µM. Further, the GI50 in the assay on NCI-H23 lung is 2.86 µM; in the assay with HCT-15 colon, 2.2 µM; with PC-3 prostate, 2.54 µM. Further, the total growth inhibition concentration (TGI) with MALME-3M melanoma was 16.7 µM; in the assay with NCI/ADR-RES ovarian it was 77.7 µM; with HS 578T breast, above 100 µM; in the assay on CCRF-CEM leukemia, 8.85 µM; with NCI-H226 lung, 6.96 µM; in the assay on SF-295 CNS, 21.6 µM. Moreover, the values for the total growth inhibition concentration (TGI) in the assay with NCI-H23 lung, in the assay with HCT-15 colon and in the assay with PC-3 prostate were 10.6 µM, 5.72 µM and 8.34 µM, respectively.

Regarding `Clc1ccc(CN2CCCN(Cc3ccc(Cl)cc3)C2c2cc3ccccc3c3ccccc23)cc1`, the TGI is 37.6 µM with MALME-3M melanoma; above 100 µM with NCI/ADR-RES ovarian; above 100 µM in the assay with HS 578T breast; above 100 µM in the assay on NCI-H226 lung; above 100 µM in the assay with SF-295 CNS; above 100 µM in the assay on HT29 colon. For the same compound, the TGI in the assay on NCI-H23 lung, in the assay on HCT-15 colon and in the assay on PC-3 prostate was above 100 µM throughout.

Consider `COc1ccc(/C=C/C(=O)c2cc3c(N)c(C(=O)Nc4ccc(OC)cc4)sc3nc2C)cc1`, for which the 50% growth inhibitory concentration (GI50) in the assay with NCI/ADR-RES ovarian is 0.185 µM; in the assay on HS 578T breast, 0.211 µM; in the assay with CCRF-CEM leukemia it was 0.567 µM; in the assay with NCI-H226 lung it was 0.0872 µM; in the assay with SF-295 CNS, 0.0645 µM; in the assay on HT29 colon, 0.404 µM. Moreover, the 50% growth inhibitory concentration (GI50) is 0.181 µM in the assay on NCI-H23 lung, 0.391 µM in the assay with HCT-15 colon and 0.434 µM in the assay with PC-3 prostate. Besides, the total growth inhibition concentration (TGI) in the assay on NCI/ADR-RES ovarian was 1.49 µM; in the assay with HS 578T breast it was above 11.8 µM; with CCRF-CEM leukemia, above 50 µM; with HT29 colon, above 28.4 µM; in the assay on HCT-15 colon, above 50 µM; in the assay on PC-3 prostate, above 50 µM.

On to `COc1ccc(-c2csc(Nc3cccc(-c4csc(C)n4)c3)n2)cc1`, for which the GI50 with NCI/ADR-RES ovarian was 0.534 µM; with HS 578T breast it was 4.68 µM; in the assay with NCI-H226 lung, 6.12 µM; in the assay on SF-295 CNS, 0.68 µM; with HT29 colon, 2.57 µM; in the assay with NCI-H23 lung it was 0.931 µM. Moreover, the values for the concentration for 50% growth inhibition (GI50) in the assay with HCT-15 colon and in the assay on PC-3 prostate were 0.226 µM and 1.97 µM, respectively. The TGI in the assay on NCI/ADR-RES ovarian is 4.19 µM; in the assay on HS 578T breast it was above 37.9 µM; in the assay with NCI-H226 lung, 19.7 µM; in the assay on SF-295 CNS, above 11.5 µM; with HT29 colon, above 50 µM; in the assay on NCI-H23 lung, 10.1 µM. Moreover, the TGI in the assay with HCT-15 colon is above 47.7 µM; in the assay on PC-3 prostate, above 50 µM.

Turning to `O=C1Nc2ccc3c(c2/C1=C\c1cc2c(cc1Br)OCO2)OCO3`, the 50% growth inhibitory concentration (GI50) in the assay on MALME-3M melanoma was 0.423 µM; in the assay with NCI/ADR-RES ovarian, 0.364 µM; with HS 578T breast it was 0.376 µM; in the assay with CCRF-CEM leukemia it was 0.244 µM; with NCI-H226 lung it was 1.38 µM; with SF-295 CNS it was 0.527 µM. Besides, the values for the GI50 in the assay with NCI-H23 lung, in the assay on HCT-15 colon and with PC-3 prostate were 0.857 µM, 0.515 µM and 0.338 µM, respectively. In addition, the TGI was determined as 4.16 µM in the assay with MALME-3M melanoma; 4.97 µM in the assay on NCI/ADR-RES ovarian; 2.11 µM in the assay with HS 578T breast; 3.05 µM in the assay on CCRF-CEM leukemia; 5.35 µM in the assay with NCI-H226 lung; 2.5 µM in the assay on SF-295 CNS. For the same compound, the TGI in the assay with NCI-H23 lung was 7.42 µM; with HCT-15 colon, above 100 µM; in the assay with PC-3 prostate, 2.8 µM.
